From patent US20230063321A1, “Methods for Treating Inflammatory Bowel Diseases with alpha4beta7 Integrin Antagonists” (Protagonist Therapeutics, Inc., priority 2020, published 2023)
Numbered stars: 1 amine (or outer) side, 2 acyl side, 3 side chain; on linkers, the order of the positions; unused ones are H or OH. Bridge positions count the residues as written; N and C are the ends. Square brackets hold non-standard residues; d marks the D form. Peptide text beside a SMILES is read from it. I, II: the chains in the order shown. ξ: configuration not given here. Phe(4-tBu) = CC(C)(C)c1ccc(C[C@H](N)C(=O)O)cc1; Diglycolyl = O=C(COCC(=O)[*:2])[*:1]; NMeR = CN[C@@H](CCCNC(=N)N)C(=O)O; β3hE = N[C@@H](CCC(=O)O)CC(=O)O; Thr(3ξ) = CC(O)[C@H](N)C(=O)O; Pen = CC(C)(S)[C@H](N)C(=O)O

How the values were obtained:
α4β7 [1] = biological target: T1, α4β7 (Homo sapiens, UniProt P13612+P26010); experiment: α4β7 internalization / surface expression by flow cytometry; format: cell-based; conditions: human PBMCs, 100 nM, 24 h
T1 construct: endogenous in cells
Text: Blood samples from human donors were obtained from the Stanford Blood Center (Stanford, Calif.) under an RB-approved research protocol. Blood was drawn into BD Vacutainer sodium heparin blood collection tubes (BD Biosciences, Cat #362753). Peripheral blood mononuclear cells (PBMCs) were isolated from blood using a SepMate-50 tube and LymphoPrep per the manufacturer's protocol. CD4^+ T memory cells were enriched after PBMC isolation, using an EasySep kit (StemCell Technologies) per the manufacturer's protocol.
After incubation, an aliquot of cells from each reaction was stained for α4β7 expression.
After incubation, cells were washed extensively to remove excess peptide. For each reaction, an aliquot of cells was stained for α4β7 expression, while a separate aliquot was tested for adhesion to MAdCAM1.
An aliquot of cells were collected before and 24 h post peptide addition and stained for α4β7 expression. Afterwards, cells were extensively washed to remove excess peptide and incubated in fresh complete culture medium (without MnCl2) for an additional seven days. On day 1, 2, 4, 5, and 7 days after peptide washout, aliquots were stained for α4β7 expression.
Following peptide incubation, an aliquot of each reaction was stained for surface expression of α4β7 in preparation for flow cytometry. Cells were stained at 4° C. for 30 minutes, washed twice in DPBS containing 0.5% BSA (PBS/BSA), incubated with streptavidin BV421 (diluted 1:1000) at 4° C. for 30 minutes, washed twice in PBS/BSA, and then resuspended in PBS/BSA for analysis. Where relevant, a “fluorescence minus one” (FMO) sample was used as the staining control.
Samples were analyzed by flow cytometry on a BD (Franklin Lakes, N.J.) FACSVerse flow cytometer equipped with the following lasers: 405 nm (violet), 488 nm (blue), 561 nm (yellow-green), and 640 nm (red). CD4^+ T memory cells were identified as CD4^+, […], CD197^+ lymphocytes. α4β7 expression within CD4^+ T memory cells was identified based on staining with the Vedolizumab BV421 complex; staining was analyzed using BD FACSuite software, version 1.0.5. Where applicable, values were normalized to no-peptide controls and expressed as percentages to permit assessment of changes in the indicated parameter. Data were plotted and analyzed using Prism software (version 7; GraphPad, La Jolla, Calif.).

α4β7 [2] = biological target: T2, α4β7 (Mus musculus, UniProt P26011+Q00651); experiment: α4β7 receptor occupancy in whole blood and Peyer's patches after oral dosing; format: in vivo, C57BL/6 mice
T2 construct: mice were euthanized and whole blood/plasma and Peyer's patches were collected; from tissue; host or cells: whole blood and Peyer's patches of C57BL/6 mice
T2 sequence (Q00651 41-1039): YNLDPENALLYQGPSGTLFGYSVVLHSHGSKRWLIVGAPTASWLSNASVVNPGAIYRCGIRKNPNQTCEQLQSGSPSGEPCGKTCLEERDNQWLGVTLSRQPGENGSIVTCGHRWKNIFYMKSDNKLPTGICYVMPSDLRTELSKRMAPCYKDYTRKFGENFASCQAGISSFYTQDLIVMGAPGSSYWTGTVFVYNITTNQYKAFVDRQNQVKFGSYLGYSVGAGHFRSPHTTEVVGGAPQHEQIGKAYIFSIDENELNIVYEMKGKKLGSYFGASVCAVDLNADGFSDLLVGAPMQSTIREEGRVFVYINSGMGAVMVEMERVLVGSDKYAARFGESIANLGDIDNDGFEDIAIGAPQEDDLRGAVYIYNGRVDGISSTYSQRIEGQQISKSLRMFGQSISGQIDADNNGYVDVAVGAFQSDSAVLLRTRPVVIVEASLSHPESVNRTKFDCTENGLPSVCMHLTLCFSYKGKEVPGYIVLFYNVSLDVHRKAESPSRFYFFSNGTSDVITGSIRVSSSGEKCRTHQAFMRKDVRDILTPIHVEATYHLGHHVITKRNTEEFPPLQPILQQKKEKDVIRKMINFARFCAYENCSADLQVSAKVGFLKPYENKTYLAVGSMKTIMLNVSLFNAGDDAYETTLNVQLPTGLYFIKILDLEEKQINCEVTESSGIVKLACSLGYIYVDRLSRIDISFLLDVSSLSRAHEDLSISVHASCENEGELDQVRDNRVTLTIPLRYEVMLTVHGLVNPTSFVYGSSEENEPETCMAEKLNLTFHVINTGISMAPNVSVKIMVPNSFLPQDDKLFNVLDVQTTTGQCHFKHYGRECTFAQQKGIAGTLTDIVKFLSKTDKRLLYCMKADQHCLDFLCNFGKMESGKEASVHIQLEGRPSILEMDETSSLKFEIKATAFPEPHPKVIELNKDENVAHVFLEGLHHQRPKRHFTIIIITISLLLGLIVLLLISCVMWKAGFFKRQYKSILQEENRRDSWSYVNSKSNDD
T2 sequence (P26011 20-806): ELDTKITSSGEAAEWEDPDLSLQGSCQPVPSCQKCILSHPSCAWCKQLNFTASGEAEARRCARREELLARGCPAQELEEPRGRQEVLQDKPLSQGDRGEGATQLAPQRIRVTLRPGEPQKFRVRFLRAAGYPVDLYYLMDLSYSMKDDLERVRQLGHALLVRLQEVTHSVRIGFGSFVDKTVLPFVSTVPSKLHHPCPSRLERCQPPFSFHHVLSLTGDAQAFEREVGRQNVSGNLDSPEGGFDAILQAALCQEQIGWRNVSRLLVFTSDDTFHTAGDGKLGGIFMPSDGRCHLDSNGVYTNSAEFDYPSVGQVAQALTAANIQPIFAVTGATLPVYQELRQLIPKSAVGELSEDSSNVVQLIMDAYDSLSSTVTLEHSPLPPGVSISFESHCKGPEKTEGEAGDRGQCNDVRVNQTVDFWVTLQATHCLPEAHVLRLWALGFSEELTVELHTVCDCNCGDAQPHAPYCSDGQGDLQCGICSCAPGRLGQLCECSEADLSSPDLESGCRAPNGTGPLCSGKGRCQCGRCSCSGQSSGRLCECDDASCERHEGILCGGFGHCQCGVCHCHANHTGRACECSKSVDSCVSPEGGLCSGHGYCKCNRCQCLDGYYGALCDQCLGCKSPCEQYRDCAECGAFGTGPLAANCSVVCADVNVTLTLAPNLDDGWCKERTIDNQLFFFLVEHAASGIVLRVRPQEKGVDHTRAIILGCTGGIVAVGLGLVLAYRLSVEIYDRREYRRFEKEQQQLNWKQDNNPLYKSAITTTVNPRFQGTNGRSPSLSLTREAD
Description: One hour following dosing, mice were euthanized and whole blood/plasma and Peyer's patches were collected. Peyer's patches were dispersed in 1 mL RPMI medium with 2% FBS without washing step. Whole blood and single cell suspension of Peyer's patches (100 uL out of 1 mL total) were submitted for flow cytometry to determine α4β7 receptor occupancy. % RO=(1−(% positive test sample/% positive median vehicle control))*100. Plasma and Peyer's patches dispersed in single cell suspension (500 uL of 1 mL total) were also analyzed for drug exposure.

α4β7 integrin = biological target: T3, α4β7 integrin (Homo sapiens, UniProt P13612+P26010); experiment: Inhibition of MAdCAM1-mediated CD4+ T cell proliferation (plate bound anti-CD3 + MAdCAM1); format: cell-based; conditions: Compound A 1 uM, inactive analog 1 uM, vedolizumab 500 ng/mL; three days
T3 construct: endogenous in cells; host or cells: primary human CD4+ T cells enriched from PBMCs of healthy donors
Description: PBMCs were purified from healthy human donors and enrichment of CD4+ T cells was performed. […] Phenotype, distribution of T-helper (Th) subsets and % RO analyses were conducted by flow cytometry of freshly stained live samples.

[3] = biological target: α4β7 integrin (mouse, on cells of whole blood and Peyer's patches) (mouse) (UniProt Q00651); experiment: flow cytometry α4β7 receptor occupancy in Peyer's patches, mice dosed orally 3 or 30 mg/kg
Sequence of α4β7 integrin (mouse, on cells of whole blood and Peyer's patches) (mouse) (Q00651 41-1039, chain 1 of 2): as the sequence (Q00651 41-1039) above
Sequence of α4β7 integrin (mouse, on cells of whole blood and Peyer's patches) (mouse) (P26011 20-806, chain 2 of 2, further chain): as the sequence (P26011 20-806) above

CC(=O)N[C@@H]1C(=O)N(C)[C@@H](CCCNC(=N)N)C(=O)N[C@@H](CO)C(=O)N[C@@H](CC(=O)O)C(=O)N[C@@H](C(C)O)C(=O)N[C@@H](CC(C)C)C(=O)N[C@H](C(=O)N[C@@H](Cc2ccc(C(C)(C)C)cc2)C(=O)N[C@@H](CCC(=O)O)CC(=O)N[C@H](CCCCNC(=O)COCC(=O)NCCCC[C@@H](NC(=O)C[C@H](CCC(=O)O)NC(=O)[C@H](Cc2ccc(C(C)(C)C)cc2)NC(=O)[C@H]2NC(=O)[C@H](CC(C)C)NC(=O)[C@H](C(C)O)NC(=O)[C@H](CC(=O)O)NC(=O)[C@H](CO)NC(=O)[C@H](CCCNC(=N)N)N(C)C(=O)[C@@H](NC(C)=O)C(C)(C)SSC2(C)C)C(N)=O)C(N)=O)C(C)(C)SSC1(C)C (stereo partly drawn) [Compound B, (Ac-Pen-(N-Me-Arg)-Ser-Asp-Thr-Leu-Pen-(Phe(4-tBu))-(β-homo-Glu)-(D-Lys)-NH2)2 (SEQ ID NO. 6) with linker=DIG (diglycolic acid)] (I: Ac-[Pen][NMeR]SD[Thr(3ξ)]L[Pen][Phe(4-tBu)][β3hE][dK]-NH2 / II: Ac-[Pen][NMeR]SD[Thr(3ξ)]L[Pen][Phe(4-tBu)][β3hE][dK]-NH2; disulfide I:1-I:7, II:1-II:7; linker I:10-II:10 via Diglycolyl)
internalization of α4β7 (α4β7 [1]): caused internalization of α4β7 | receptor occupancy in Peyer's patches (α4β7 [2]; 3 and 30 mg/kg PO, 1 h post dose, some animals): 100% | receptor occupancy in whole blood and Peyer's patches, 30 mg/kg vs 3 mg/kg dose group (α4β7 [2]; PO): comparable | receptor occupancy in Peyer's patches compared to whole blood (α4β7 [2]; both dose groups (3 and 30 mg/kg PO)): significantly higher

vedolizumab: intravenously administered humanized IgG monoclonal antibody directed against α4β7 [reference compound]
inhibition of MAdCAM1-mediated proliferation of CD4+ T-cells (α4β7 integrin): level of inhibition was similar to inhibition by vedolizumab

B1: Compound B (peptide)
peptide: Ac-[Pen][NMeR]SDTL[Pen][Phe(4-tBu)][β3hE][dK]-NH2
modifications: disulfide 1-7; also: homodimer linked through D-Lys residues by diglycolic acid (DIG)
receptor occupancy (%) [3]: 100%
